{"source": "patent US20040198752A1", "about": "“Method for inhibiting retinoid skin damage” (priority 2001, published 2004)", "key": {"[1]": {"system": "human epidermal keratinocytes", "test": "Proliferation assay, keratinocytes in monolayer culture", "assay_type": "cell-based", "protocol": "(§1) Normal human epidermal keratinocytes were obtained from skin biopsies and maintained in monolayer culture using Keratinocyte Growth Medium (KGM) (Clonetics, Inc., Walkersville, Md.). KGM contains the same basal medium as KBM, but is further supplemented with a mixture of growth factors including 0.1 ng/mL EGF, 0.5 μg/mL insulin, and 2% bovine pituitary extract. In some experiments, the HaCaT line of immortalized human epidermal keratinocytes (Boukamp P, Petrussevska R T, Breitkreutz D, Hornung J, Markham A, Fusenig N E. Normal keratinization in a spontaneously immortalized aneuploid human keratinocyte cell line. J Cell Biol, 1988;106:761-771) was used in place of normal keratinocytes. We (J.V., S.W.S., and J.T.E., unpublished observations) and others (Chaturvedi V, Qin J Z, Denning M F, Choubey D, Diaz M O, Nickoloff B J. Apoptosis in proliferating, senescent, and immortalized keratinocytes. J Biol Chem, 1999;274:23358-23367) have observed that HaCaT cells grow well in KGM. Therefore, HaCaT cells and NHK were propagated in exactly the same manner. Fibroblasts obtained from human skin were grown in monolayer culture using Dulbecco's modified minimal essential medium supplemented with nonessential amino acids and 10% fetal bovine serum (DMEM-FBS). Both keratinocytes and fibroblasts were maintained at 37° C. in an atmosphere of 95% air and 5% CO2. Cells were sub-cultured by exposure to trypsin/EDTA and used at passage 2-3.\nFor proliferation assays, cells were initially plated at 4×10^4 cells per well of a 24-well dish in growth medium (KGM for keratinocytes or DMEM-FBS for fibroblasts). After allowing cells to attach for 1 to 2 hours, the medium was removed and the cells washed twice in KBM (keratinocytes) or Ca^2+-supplemented KBM (fibroblasts). The cells were then incubated for 48 hours with or without additional reagents as indicated in Results. At the end of the incubation period, the cells were harvested by trypsinization and enumerated using an automated particle counter (Coulter Electronics, Hialeah, Fla.)."}, "[2]": {"system": "tyrosine kinases residing outside the c-erbB family", "details": "1 μM; cited from earlier work"}, "[3]": {"system": "human epidermal keratinocytes", "test": "51Cr-release cytotoxicity assay", "assay_type": "cell-based", "details": "for IC50: read-out: Cytotoxicity (ID50)", "protocol": "(§2) A ^51Cr-release assay was used to measure cytotoxic effects of the irreversible c-erbB-RTK antagonist. For this assay, keratinocytes were initially plated at 2×10^4 cells per well of a 24-well dish in growth medium (KGM) and treated with 1 μCi per well of ^51Cr. After allowing cells to incorporate ^51Cr for one day, the non-incorporated isotope was removed and the cells washed twice in KBM. The cells were then incubated for 18 hours with or without treatments as indicated in Results. At the end of the incubation period, the percentage of Incorporated ^51Cr that was released into the culture medium was determined."}, "[4]": {"test": "51Cr-release cytotoxicity assay", "assay_type": "cell-based, human", "details": "human, human epidermal keratinocytes; KBM + Ca2+; read-out: Cytotoxicity (ID50)", "protocol": "as §2"}, "[5]": {"system": "organ-cultured human skin", "test": "RA-induced epidermal hyperplasia in human skin organ culture", "assay_type": "cell-based", "from_the_text": "Immediately upon biopsy, the tissue was immersed in culture medium consisting of Keratinocyte Basal Medium (KBM) (Clonetics, Inc., Walkersville, Md.). KBM is a low-Ca^2+, serum-free modification of MCDB-153 medium optimized for high-density keratinocyte growth (Wille J, Jr., Pittelkow M R, Shipley G D, Scott R E. Integrated control of growth and differentiation of normal human prokeratinocytes cultured in serum-free medium: clonal analyses, growth kinetics, and cell cycle studies. J Cell Physiol 1984;121:31-44). It was supplemented with CaCl2 to bring the final Ca^2+ concentration to 1.4 mM. After transport to the laboratory on ice, the biopsies were incubated in a 96-well dish containing 200 μL of Ca^2+-supplemented KBM with or without additional treatments. Cultures were incubated at 37° C. in an atmosphere of 95% air and 5% CO2. Incubation was for 8 days, with change of medium containing the various treatments every 2 days. […] For the experiment shown in FIG. 4, human skin keratome biopsies were subjected to organ culture in the presence or absence of 3 μM RA followed by RNA isolation and Northern blotting as previously described (Stoll SW, Elder J T. Retinoid regulation of heparin-binding EGF-lke growth factor gene expression in human keratinocytes and skin. Exp Dermatol, 1998;7:391-397), except that the concentration of Ca^2+ was adjusted to 0.1 mM or 1.4 mM by the addition of CaCl2. cDNA insert probes for detection of HB-EGF and 36B4 were prepared and labeled by random priming, as previously described (Stoll and Elder, Supra., 1998)."}, "[6]": {"details": "0.1, 0.5 and 1 mg/kg/day; cited from earlier work"}, "[7]": {"system": "HB-EGF mRNA", "test": "HB-EGF mRNA in human skin organ culture (Northern blotting)", "assay_type": "cell-based", "details": "3 μM RA, 8 hours", "from_the_text": "Immediately upon biopsy, the tissue was immersed in culture medium consisting of Keratinocyte Basal Medium (KBM) (Clonetics, Inc., Walkersville, Md.). KBM is a low-Ca^2+, serum-free modification of MCDB-153 medium optimized for high-density keratinocyte growth (Wille J, Jr., Pittelkow M R, Shipley G D, Scott R E. Integrated control of growth and differentiation of normal human prokeratinocytes cultured in serum-free medium: clonal analyses, growth kinetics, and cell cycle studies. J Cell Physiol 1984;121:31-44). It was supplemented with CaCl2 to bring the final Ca^2+ concentration to 1.4 mM. After transport to the laboratory on ice, the biopsies were incubated in a 96-well dish containing 200 μL of Ca^2+-supplemented KBM with or without additional treatments. Cultures were incubated at 37° C. in an atmosphere of 95% air and 5% CO2. Incubation was for 8 days, with change of medium containing the various treatments every 2 days. […]"}, "[8]": {"system": "human dermal fibroblasts", "test": "RA-induced survival of dermal fibroblasts in low-Ca2+ monolayer culture", "assay_type": "cell-based", "details": "3 μM RA, 48 hours, KBM 0.15 mM CaCl2", "protocol": "as §1, with “Cells were sub-cultured by exposure to trypsin/EDTA and used at passage 2-3.” left out"}, "[9]": {"details": "examined at 1 μM, 5 μM and 10 μM"}}, "note": "Read-outs that look alike come from different tables or passages of the source.", "data": [{"smiles": "C=CC(=O)Nc1cc2c(Nc3cccc(Br)c3)ncnc2cc1OCCCN1CCOCC1", "note": "[PD 169540, N-[4-(3-bromo-phenylamino)-7-(3-morpholin-4-yl-propoxy)-quinazolin-6-yl]-acrylamide]", "values": [{"measurement": "Inhibition of Growth (ID50)", "setting": "[1]; +EGF", "result": 6, "unit": "nM"}, {"measurement": "Inhibition of Growth (ID50)", "setting": "[1]; +insulin/pituitary extract", "result": 900, "unit": "nM"}, {"measurement": "Inhibition of Growth (ID50)", "setting": "[1]; KBM + Ca2+", "result": 8, "unit": "nM"}, {"measurement": "relative potency, organ culture hyperplasia and monolayer proliferation", "setting": "[1]; comparison of the two c-erbB-RTK antagonists", "result": "clearly the more potent compound in both assays"}, {"measurement": "effect on tyrosine kinases residing outside the c-erbB family", "setting": "[2]", "result": "without effect"}, {"measurement": "IC50", "setting": "[3]; +EGF", "result": "> 1000", "unit": "nM"}, {"measurement": "IC50", "setting": "[3]; +insulin/pituitary extract", "result": "> 1000", "unit": "nM"}, {"measurement": "cytotoxicity by 51Cr release", "setting": "[3]; any of the concentrations tested", "result": "virtually no cytotoxicity"}, {"measurement": "IC50 at 18 h", "setting": "[4]", "result": "> 1000", "unit": "nM"}, {"measurement": "reversal of RA-induced epidermal hyperplasia", "setting": "[5]; 0.5 μM and 0.1 μM inhibitor, 3 μM RA", "result": "also effective, albeit less so than 1 μM"}, {"measurement": "reversal of RA-induced epidermal hyperplasia", "setting": "[5]; 1 μM inhibitor, 3 μM RA", "result": "reversed the effects of 3 μM RA"}, {"measurement": "RA-stimulated epidermal thickness by keratinocyte counts (keratinocytes/block)", "setting": "[5]; RA + inhibitor, FIG. 2", "result": "reduction in hyperplasia"}, {"measurement": "reversal of RA-induced epidermal hyperplasia", "setting": "[5]; concentrations lower than 0.1 μM", "result": "no effect"}]}, {"smiles": "CC1=C(/C=C/C(C)=C/C=C/C(C)=C\\C(=O)O)C(C)(C)CCC1", "note": "[Accutane, 13-cis-retinoic acid]", "values": [{"measurement": "clearing of disease", "setting": "[6]", "result": "all dosages provided initial clearing of disease"}]}, {"smiles": "CNc1cc2c(Nc3cccc(Br)c3)ncnc2cn1", "note": "[PD 158780, N^4-(3-Bromo-phenyl)-N^6-methyl-pyrido[3,4-d]pyrimidine-4,6-diamine]", "values": [{"measurement": "antiproliferative activity", "setting": "[5]; [9]", "result": "detected only at 5 and 10 μM"}, {"measurement": "effects on RA-stimulated hyperplasia", "setting": "[5]; [9]", "result": "reversed the effects of RA"}]}, {"smiles": "CC1=C(/C=C/C(C)=C/C=C/C(C)=C/C(=O)O)C(C)(C)CCC1", "note": "[RA, all-trans retinoic acid, reference compound]", "values": [{"measurement": "HB-EGF mRNA induction", "setting": "[7]; 1.4 mM Ca2+", "result": "clearly dominant over the inhibitory effect of 1.4 mM Ca^2+"}, {"measurement": "HB-EGF mRNA induction", "setting": "[7]; low-Ca2+ (0.1 mM)", "result": "strongly potentiated"}, {"measurement": "fibroblast survival", "setting": "[8]", "result": "markedly and significantly promoted fibroblast survival"}, {"measurement": "number of Ki-67-positive cells", "setting": "[5]; 3 μM RA, 8 days", "result": "much larger number of Ki-67-positive cells than did the controls"}, {"measurement": "epidermal thickness (number of epidermal keratinocytes)", "setting": "[5]; 3 μM RA, 8 days, 1.4 mM Ca2+", "result": "The epidermis was thickened"}, {"measurement": "preservation of epithelial viability", "setting": "[5]; RA added to low-Ca2+ organ cultures", "result": "up to 12 days"}]}]}
